Activity calls are given as the source filed them. No cut-off for these calls is given here.
What was measured:
MDCK [1] = assay: Antiviral activity against avian influenza virus H5N1 measured as protective rate against MDCK cells at 50 uM by neutral red uptake assay; format: functional
MDCK [2] = assay: Antiviral activity against avian influenza virus H5N1 in MDCK cells measured as reduction in infected cells relative to control; format: functional, cell-based; conditions: Canis lupus familiaris

Row | Compound | Activity (MDCK [1]) | EC50 (MDCK [2]) [µM]
1 | CC(=O)N[C@H]1[C@H]([C@H](O)[C@H](O)CO)OC(C(=O)O)=C[C@@H]1n1cc(CN2CCOCC2)nn1 | 17.3% | –
2 | CC(=O)N[C@H]1[C@H]([C@H](O)[C@H](O)CO)OC(C(=O)O)=C[C@@H]1n1cc(COc2ccccc2)nn1 | 34.8% | –
3 | CC(=O)N[C@H]1[C@H]([C@H](O)[C@H](O)CO)OC(C(=O)O)=C[C@@H]1n1cc(-c2ccc(-c3ccccc3)cc2)nn1 | 19.1% | –
4 | CC(=O)N[C@H]1[C@H]([C@H](O)[C@H](O)CO)OC(C(=O)O)=C[C@@H]1NC(=N)N [ZANAMIVIR] | 86.1% | 2.8
5 | COC(=O)C1=C[C@H](n2cc(C(=O)OC)nn2)[C@@H](NC(C)=O)[C@H]([C@H](O)[C@H](O)CO)O1 | 9.9% | –
6 | CC(=O)N[C@H]1[C@H]([C@H](O)[C@H](O)CO)OC(C(=O)O)=C[C@@H]1n1cc(CN)nn1 | inactive | –
7 | CCCc1ccc(-c2cn([C@H]3C=C(C(=O)O)O[C@@H]([C@H](O)[C@H](O)CO)[C@@H]3NC(C)=O)nn2)cc1 | 22.1% | –
8 | CCC(O)c1cn([C@H]2C=C(C(=O)OCCC(C)C)O[C@@H]([C@H](O)[C@H](O)CO)[C@@H]2NC(C)=O)nn1 (some centres undefined) | 8.9% | –
9 | CC(=O)N[C@H]1[C@H]([C@H](O)[C@H](O)CO)OC(C(=O)O)=C[C@@H]1n1cc(-c2ccccn2)nn1 | inactive | –
10 | CC(=O)N[C@H]1[C@H]([C@H](O)[C@H](O)CO)OC(C(=O)O)=C[C@@H]1n1cc(CCO)nn1 | 14.5% | –
11 | CC(=O)N[C@H]1[C@H]([C@H](O)[C@H](O)CO)OC(C(=O)O)=C[C@@H]1n1cc(CCCO)nn1 | 6.3% | –
12 | CCC(O)c1cn([C@H]2C=C(C(=O)O)O[C@@H]([C@H](O)[C@H](O)CO)[C@@H]2NC(C)=O)nn1 (some centres undefined) | >61.4% | 6.4
13 | CC(=O)N[C@H]1[C@H]([C@H](O)[C@H](O)CO)OC(C(=O)O)=C[C@@H]1n1cc(-c2ccc(F)cc2)nn1 | inactive | –
14 | CCc1ccc(-c2cn([C@H]3C=C(C(=O)O)O[C@@H]([C@H](O)[C@H](O)CO)[C@@H]3NC(C)=O)nn2)cc1 | 34.4% | –
15 | CC(=O)N[C@H]1[C@H]([C@H](O)[C@H](O)CO)OC(C(=O)O)=C[C@@H]1n1cc(-c2ccccc2)nn1 | 18.7% | –
16 | CCCOc1ccc(-c2cn([C@H]3C=C(C(=O)O)O[C@@H]([C@H](O)[C@H](O)CO)[C@@H]3NC(C)=O)nn2)cc1 | 40.2% | –
17 | CC(=O)N[C@H]1[C@H]([C@H](O)[C@H](O)CO)OC(C(=O)O)=C[C@@H]1n1cc(C2CC2)nn1 | 8.9% | –
